Measurements published in the supplement of paper PMC10627819.

Test system: S. aureus DSM 20231
Test: Bliss interaction score (quartile over a dose matrix) (fitness difference); higher = more antagonism (negative = synergy)
Outline: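 Values were capped at 1 after dividing OD595 at stationary-phase entry by the plate's robust no-drug mean. This ratio is fitness, and single-drug fitness was inferred from the combination data. The Bliss score is observed minus product-expected fitness, given as quartiles over technical, biological and donor/recipient replicates.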
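Note: first quartile when negative (synergy) and third quartile when positive (antagonism).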

| SMILES | Bliss interaction score | Bliss interaction score (main component drawn) |
| --- | --- | --- |
| CC(=O)OC[C@H]1O[C@@H]([S-])[C@H](OC(C)=O)[C@@H](OC(C)=O)[C@@H]1OC(C)=O.CCP(CC)CC.[Au+] [Auranofin] + CC(=O)Oc1cccc2c1C(=O)c1c(OC(C)=O)cc(C(=O)O)cc1C2=O [Diacerein] | -0.466 |  |
| CC(=O)OC[C@H]1O[C@@H]([S-])[C@H](OC(C)=O)[C@@H](OC(C)=O)[C@@H]1OC(C)=O.CCP(CC)CC.[Au+] [Auranofin] + C[C@H]1C[C@@H]2[C@H]([C@@H](O)C[C@@]3(C)[C@H]2CC[C@]3(O)C(=O)CO)[C@@]2(C)C=CC(=O)C=C12 [Methylprednisolone] | 0.162 |  |
| CCc1oc2ccccc2c1C(=O)c1cc(Br)c(O)c(Br)c1 [Benzbromarone] + C1=CC(=CC(=C1)Cl)NN=C(C#N)C#N [CCCP] | -0.103 |  |
| CCc1oc2ccccc2c1C(=O)c1cc(Br)c(O)c(Br)c1 [Benzbromarone] + CC(C1CCC(C(O1)OC2C(CC(C(C2O)OC3C(C(C(CO3)(C)O)NC)O)N)N)N)NC [Gentamicin] |  | 0.189 |
| CCc1oc2ccccc2c1C(=O)c1cc(Br)c(O)c(Br)c1 [Benzbromarone] + N[C@@H]1CONC1=O [CycloserineD] | -0.109 |  |
| CCc1oc2ccccc2c1C(=O)c1cc(Br)c(O)c(Br)c1 [Benzbromarone] + O=C(O[C@@H]1Cc2c(O)cc(O)cc2O[C@@H]1c1cc(O)c(O)c(O)c1)c1cc(O)c(O)c(O)c1 [EGCG] | -0.139 |  |
| O=C(N[C@H](CO)[C@H](O)c1ccc([N+](=O)[O-])cc1)C(Cl)Cl [Chloramphenicol] + CC(=O)Oc1cccc2c1C(=O)c1c(OC(C)=O)cc(C(=O)O)cc1C2=O [Diacerein] | -0.41 |  |
| O=C(N[C@H](CO)[C@H](O)c1ccc([N+](=O)[O-])cc1)C(Cl)Cl [Chloramphenicol] + CCCSc1nc(N[C@@H]2C[C@H]2c2ccc(F)c(F)c2)c2nnn([C@@H]3C[C@H](OCCO)[C@@H](O)[C@H]3O)c2n1 [Ticagrelor] | -0.239 |  |
| O=C(N[C@H](CO)[C@H](O)c1ccc([N+](=O)[O-])cc1)C(Cl)Cl [Chloramphenicol] + C[C@H]1C[C@@H]2[C@H]([C@@H](O)C[C@@]3(C)[C@H]2CC[C@]3(O)C(=O)CO)[C@@]2(C)C=CC(=O)C=C12 [Methylprednisolone] | -0.204 |  |
| CC[C@H]1OC(=O)[C@H](C)[C@@H](O[C@H]2C[C@@](C)(OC)[C@@H](O)[C@H](C)O2)[C@H](C)[C@@H](O[C@@H]2O[C@H](C)C[C@H](N(C)C)[C@H]2O)[C@](C)(OC)C[C@@H](C)C(=O)[C@H](C)[C@@H](O)[C@]1(C)O [Clarithromycin] + CC(C)Cc1ccc(C(C)C(=O)O)cc1 [Ibuprofen] | -0.171 |  |
| CC[C@H]1OC(=O)[C@H](C)[C@@H](O[C@H]2C[C@@](C)(OC)[C@@H](O)[C@H](C)O2)[C@H](C)[C@@H](O[C@@H]2O[C@H](C)C[C@H](N(C)C)[C@H]2O)[C@](C)(OC)C[C@@H](C)C(=O)[C@H](C)[C@@H](O)[C@]1(C)O [Clarithromycin] + CN1CCC[C@H]1c1cccnc1 [Nicotine] | -0.223 |  |
| CC[C@H]1OC(=O)[C@H](C)[C@@H](O[C@H]2C[C@@](C)(OC)[C@@H](O)[C@H](C)O2)[C@H](C)[C@@H](O[C@@H]2O[C@H](C)C[C@H](N(C)C)[C@H]2O)[C@](C)(OC)C[C@@H](C)C(=O)[C@H](C)[C@@H](O)[C@]1(C)O [Clarithromycin] + C[C@H]1C[C@@H]2[C@H]([C@@H](O)C[C@@]3(C)[C@H]2CC[C@]3(O)C(=O)CO)[C@@]2(C)C=CC(=O)C=C12 [Methylprednisolone] | -0.275 |  |
| CC[C@H]1OC(=O)[C@H](C)[C@@H](O[C@H]2C[C@@](C)(OC)[C@@H](O)[C@H](C)O2)[C@H](C)[C@@H](O[C@@H]2O[C@H](C)C[C@H](N(C)C)[C@H]2O)[C@](C)(OC)C[C@@H](C)C(=O)[C@H](C)[C@@H](O)[C@]1(C)O [Clarithromycin] + Cc1c(Cl)cccc1Nc1ccccc1C(=O)O [Tolfenamic] | -0.245 |  |
| CC[C@H]1OC(=O)[C@H](C)[C@@H](O[C@H]2C[C@@](C)(OC)[C@@H](O)[C@H](C)O2)[C@H](C)[C@@H](O[C@@H]2O[C@H](C)C[C@H](N(C)C)[C@H]2O)[C@](C)(OC)C[C@@H](C)C(=O)[C@H](C)[C@@H](O)[C@]1(C)O [Clarithromycin] + O=C(O)Cc1cc(I)c(Oc2ccc(O)c(I)c2)c(I)c1 [Tiratricol] | 0.192 |  |
| CCC[C@@H]1C[C@@H](C(=O)N[C@@H]([C@H]2O[C@H](SC)[C@H](O)[C@@H](O)[C@H]2O)[C@H](C)Cl)N(C)C1 [Clindamycin] + CC(C)Cc1ccc(C(C)C(=O)O)cc1 [Ibuprofen] | -0.231 |  |
